This data set in a line: solvent given as SMILES.

`CCCSc1ccc2n1[B-](F)(F)[N+]1=C(SC#N)C=CC1=C2c1ccccc1`: the absorption maximum is recorded as 538 nm (in CC#N); 555 nm (in CCCCCC); 549 nm (in CCOC(C)=O); 544 nm (in CO); 552 nm (in ClCCl).
For the setting “in ClC(Cl)Cl”, `CCCCN1C(=O)c2cc(Oc3ccc(C(C)(C)C)cc3)c3c4c(Oc5ccc(C(C)(C)C)cc5)cc5c6c(cc(Oc7ccc(C(C)(C)C)cc7)c(c7c(Oc8ccc(C(C)(C)C)cc8)cc(c2c37)C1=O)c64)C(=O)N(CCCC)C5=O` yielded an absorption maximum of 582 nm.
As for `CCOC(=O)c1c2c3c(ccc(C)c3c3cc4c(cc13)[Si](C)(C)O[Si]4(C)C)N(C)C2=O`, for the setting “in CC#N”, the absorption maximum is 380 nm.
Consider `Cc1ccc(Nc2ccc(Nc3ccc(C)cc3)c3c2C(=O)c2ccccc2C3=O)cc1`, for which the absorption maximum (in C1CCCCC1) was 639 nm; the absorption maximum (in C1COCCO1) is on record as 638 nm; the absorption maximum (in CC(C)=O) worked out at 638 nm; the absorption maximum (in CCCCCCCCCCO) is 644 nm; the absorption maximum (in CCCCCCCO) is recorded as 641 nm; the absorption maximum (in CCCCCCO) is 642 nm. In addition, the absorption maximum runs as follows: (in CCCCO) 639 nm; (in CCO) 637 nm; (in CN(C)C=O) 643 nm; (in CO) 636 nm; (in CS(C)=O) 644 nm; (in ClC(Cl)(Cl)Cl) 642 nm. The absorption maximum (in c1ccccc1) is on record as 642 nm.
For `c1ccc(N(c2ccccc2)c2ccc3c(ccc4nc5ccc6cc(N(c7ccccc7)c7ccccc7)ccc6c5nc43)c2)cc1`, the absorption maximum is, setting by setting: (in C1CCCCC1) 471 nm; (in C1CCOC1) 474 nm; (in CN(C)C=O) 477 nm; (in Cc1ccccc1) 473 nm; (in ClCCl) 476 nm.
With `CC1(C)c2ccccc2N(c2ccc(-c3cnc(C#N)nc3)cc2)c2ccccc21`, where the note is “in Cc1ccccc1”, the absorption maximum was determined as 384 nm.
Consider `COc1ccc(-c2csc(-c3ccncc3)n2)cc1`, for which the absorption maximum by setting is: (in CC#N) 394 nm; (in CCO) 340 nm; (in CN(C)C=O) 340 nm; (in CS(C)=O) 341 nm; (in Cc1ccccc1) 340 nm; (in ClCCl) 401 nm.
Consider `O=Cc1cc(O)c(C=O)cc1O`, for which the absorption maximum runs as follows: (in C1CCOC1) 414 nm; (in C1COCCO1) 414 nm; (in CC#N) 413 nm; (in CC(C)=O) 413 nm; (in CCCO) 415 nm; (in CCO) 413 nm. Also, the absorption maximum runs as follows: (in CN(C)C=O) 414 nm; (in CN(C)P(=O)(N(C)C)N(C)C) 427 nm; (in CNC=O) 377 nm; (in CO) 384 nm; (in CS(C)=O) 417 nm; (in NC=O) 356 nm.
Turning to `COc1ccccc1-c1c(-c2ccccc2O)nc(-c2ccc(C(F)(F)F)cc2)n1-c1ccc(C)cc1`, the absorption maximum runs as follows: (in C1CCOC1) 313 nm; (in CC(C)O) 311 nm; (in CO) 309 nm; (in CS(C)=O) 315 nm; (in ClC(Cl)Cl) 314 nm; (in ClCCl) 313 nm.
For the molecule `O=Cc1cc2c(cc3ccc4cccc5ccc2c3c45)[nH]1`, the absorption maximum (in CCOC(C)=O) was 416 nm.
In turn, `CC1(C)c2ccccc2N(c2ccc(-c3ccc4c(c3)C(=O)c3ccc(-c5ccc(N6c7ccccc7C(C)(C)c7ccccc76)cc5)cc3C4=O)cc2)c2ccccc21` returned an absorption maximum (in Cc1ccccc1) of 446 nm.
Take `CC(C)(C)c1ccc(-c2c(-c3cccc(N(c4ccccc4)c4ccccc4)c3)c(C#N)c(-c3cccc(N(c4ccccc4)c4ccccc4)c3)c(-c3ccc(C(C)(C)C)cc3)c2-c2ccc(C(C)(C)C)cc2)cc1`: the absorption maximum (in C1CCOC1) is recorded as 297 nm.
With `CN(C)c1ccc(/C=C/C(=O)c2ccc(Cl)cc2)cc1`, the absorption maximum is 413 nm (in C1CCOC1); 419 nm (in CC#N); 430 nm (in CC(=O)O); 418 nm (in CC(C)=O); 429 nm (in CCO); 427 nm (in CN(C)C=O). Also, the absorption maximum (in CO) is on record as 428 nm, the absorption maximum (in Cc1ccccc1) turned out to be 416 nm, the absorption maximum (in ClC(Cl)Cl) is on record as 426 nm and the absorption maximum (in c1ccccc1) was 420 nm.
With `CCC1(CC)c2cc(/C=C/c3ccc(/C=C/c4ccc5c(c4)C(CC)(CC)c4cc(N6c7ccccc7Sc7ccccc76)ccc4-5)cc3)ccc2-c2ccc(N3c4ccccc4Sc4ccccc43)cc21`, the absorption maximum reads like this: (in C1CCOC1) 444.73 nm; (in CC#N) 441.5 nm; (in CCCCCC) 440.65 nm; (in Cc1ccccc1) 446.43 nm; (in ClCCl) 418 nm.
Molecule `c1ccc2c(c1)-c1cc(-n3c4ccccc4c4ccccc43)ccc1C21c2ccccc2-n2c3ccccc3c3cccc1c32` (centres undefined) showed an absorption maximum (in ClCCl) of 339 nm.
The molecule `CCCCn1c2ccc(C#Cc3cccs3)cc2c2c1c1c3ccc(C#Cc4cccs4)cc3n(CCCC)c1c1c3ccc(C#Cc4cccs4)cc3n(CCCC)c21` gave an absorption maximum (in C1CCOC1) of 348 nm.
In the case of `Clc1ccc(/C=C/c2cnc3ccccc3n2)cc1`, the absorption maximum (in ClCCl) is listed as 355 nm.
On to `CCCCCCc1cc(-c2ccc3c(c2)C2CCCC2N3c2ccc3c(c2)C(C)(C)c2ccccc2-3)sc1/C=C1\C(=O)c2ccc(C(=O)O)cc2C1=O` (centres undefined), for which the absorption maximum (in ClC(Cl)Cl) is reported as 611 nm.
`COC(=O)C(Cc1ccc2oc(-c3ccc(N(c4ccccc4)c4ccccc4)cc3)nc2c1)NC(=O)OC(C)(C)C` (centres undefined): the absorption maximum reads like this: (in C1CCCCC1) 361.7 nm; (in C1CCOC1) 362.85 nm; (in C1COCCO1) 363.1 nm; (in CC1CCCCC1) 361.35 nm; (in CC1COC(=O)O1) 361.45 nm; (in CC#N) 360.5 nm. In addition, the absorption maximum (in CC(C)=O) was found to be 360.45 nm; the absorption maximum (in CC(C)O) was found to be 365.45 nm; the absorption maximum (in CC(O)CO) was 368.35 nm; the absorption maximum (in CCCCCC) is on record as 359.8 nm; the absorption maximum (in CCCCCCCC) is 361.55 nm; the absorption maximum (in CCCCCO) is on record as 367.75 nm. Also, the absorption maximum is, setting by setting: (in CCCCO) 367.1 nm; (in CCO) 366.3 nm; (in CCOC(C)=O) 360.5 nm; (in CN(C)C=O) 363 nm; (in CO) 365.05 nm; (in COCCOC) 362.55 nm. For the same molecule, the absorption maximum by setting is: (in CS(C)=O) 364 nm; (in ClC(Cl)Cl) 369.25 nm; (in ClCCl) 366.18 nm; (in N#Cc1ccccc1) 368.3 nm; (in NC=O) 367.45 nm; (in O) 367 nm. Also, the absorption maximum (in OCC(F)(F)F) stood at 366.1 nm.
For the molecule `O=C([O-])c1ccc(C(=O)[O-])c(C2=c3cc4c5c(c3Oc3c2cc2c6c3CCCN6CCC2)CCC[N+]=5CCC4)c1`, the absorption maximum runs as follows: (in CCO) 571 nm; (in O) 574 nm.
As to `O=c1c2ccccc2nc2ccc(-c3ccc(N(c4ccccc4)c4ccccc4)cc3)cn12`, under “in ClCCl”, the absorption maximum stood at 355 nm.
For `FC(F)(F)c1cc2n(n1)[B-]1(c3ccccc3-c3ccccc31)[n+]1ccc3ccccc3c1-2`, the absorption maximum by setting is: (in C1CCCCC1) 373 nm; (in Cc1ccccc1) 375 nm; (in ClCCl) 373 nm.
With `O=C(O)c1cccc2c(=O)c3ccccc3[nH]c12`, the absorption maximum (in O) was determined as 413 nm.
In the case of `CN1C(=CC2=C([O-])C(=CC3=[N+](C)c4ccccc4C3(C)C)C2=C2C(=O)c3ccccc3C2=O)C(C)(C)c2ccccc21`, the absorption maximum (in ClC(Cl)Cl) came to 675 nm.
Turning to `CN(C)c1ccc(C#Cc2ccccc2)cc1`, the absorption maximum reads like this: (in C1CCCCC1) 316.9 nm; (in C1CCOC1) 328.8 nm; (in C1COCCO1) 326.61 nm; (in CC1CCCO1) 327.1 nm; (in CC(C)=O) 329.4 nm; (in CC(C)CC(C)(C)C) 315 nm. Also, the absorption maximum is, setting by setting: (in CC(C)O) 321.4 nm; (in CCCCCCCCCCCCCCCC) 316.9 nm; (in CCCCCCCCCCCCCCCCCl) 330 nm; (in CO) 324 nm; (in Cc1ccccc1) 326.3 nm.
As for `COC(=O)c1ccc(C2=C3C(C)=CC(C)=[N+]3[B-](F)(F)n3c(/C=C/c4c[nH]cn4)cc(C)c32)cc1`, the absorption maximum (in ClC(Cl)Cl) worked out at 572 nm.
As to `F[B-]1(F)n2cccc2C=C2C=CC=[N+]21`, the absorption maximum runs as follows: (in C1CCCCC1) 503.5 nm; (in CC(C)=O) 497.5 nm; (in CCCCCC) 502 nm; (in CCO) 498 nm; (in CCOC(C)=O) 498 nm; (in CO) 497 nm. Also, the absorption maximum stood at 503 nm (in ClCCl) and 497 nm (in OCC(F)(F)F).
For `COc1ccc(-c2c3cc4cc(C)sc4cc3c(C#Cc3ccccc3)c3cc4cc(C)sc4cc23)cc1`, the absorption maximum (in ClCCl) worked out at 539 nm.
As to `C=Cc1ccc(OC)cc1`, the absorption maximum (in C1CCCCC1) stood at 302 nm.
On to `Cc1cccc(-c2[nH]c(=O)n3c2-c2ccccc2C3=O)c1O`, for which the absorption maximum by setting is: (in CC#N) 391 nm; (in CO) 395 nm; (in ClCCl) 392 nm.
For the molecule `CCN(CC)c1ccc2cc(C#N)c(=O)oc2c1`, the absorption maximum (in ClCCl) turned out to be 428 nm.
On to `O=C(O)c1ccc(C(=O)O)c2cc3ccccc3cc12`, for which the absorption maximum was determined as 396 nm (in C1CCOC1) and 390 nm (in CN(C)C=O).
Take `c1cc2c3c(c1)-c1cccc4cccc(c14)B3c1cccc3cccc-2c13`: for the setting “in Cc1ccccc1”, the absorption maximum was 466 nm.

The record behind these values is the Deep4Chem optical property database.
